In data set [1] the target is LdNMT (Leishmania donovani, UniProt D0AB09). As to the kind of experiment: biochemical. The class given is biochemical. The following applies: for Ki: apparent Ki calculated from IC50 with Cheng–Prusoff equation. The protocol: (§1) Enzyme assay information. All IC 50 determinations were carried out using a 7-diethylamine-3-(4’maleimidylphenyl)-4-methylcoumarin (CPM) fluorescence assay, as described by previously. 2–4 The HsNMT1, PfNMT and PvNMT assays are as described in the literature, for LdNMT the final enzyme concentration and peptide substrates are: [LdNMT]: 400 ng/mL; LdNMT Peptide Substrate: Homo sapiens […]
Chain of LdNMT (Leishmania donovani, UniProt D0AB09) (D0AB09 entry or part of it): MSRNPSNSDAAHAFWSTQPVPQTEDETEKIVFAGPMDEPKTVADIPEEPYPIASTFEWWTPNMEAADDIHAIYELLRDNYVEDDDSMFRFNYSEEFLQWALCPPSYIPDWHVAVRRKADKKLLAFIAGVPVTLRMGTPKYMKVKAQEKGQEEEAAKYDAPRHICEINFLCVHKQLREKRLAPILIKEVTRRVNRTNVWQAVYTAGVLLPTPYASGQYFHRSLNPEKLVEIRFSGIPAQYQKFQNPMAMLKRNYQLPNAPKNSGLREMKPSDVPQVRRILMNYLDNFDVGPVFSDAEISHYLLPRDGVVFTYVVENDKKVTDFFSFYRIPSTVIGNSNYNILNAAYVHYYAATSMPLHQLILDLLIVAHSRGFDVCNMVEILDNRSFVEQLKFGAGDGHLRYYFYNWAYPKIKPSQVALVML
(§2) was 4.0 μM. IC 50 of an inhibitor was calculated by a nonlinear regression analysis using GraFit 7.0.1 version (Erithacus Software Limited, UK).The values are the mean […]
(§3) Ki values were calculated from the experimentally determined IC 50 values, the substrate concentration ([S]) and the Michaelis-Menten constant (K m) as described by […]

Data set [2] deals with bone marrow-derived macrophage (BMDM). The following applies: 72 h.
Protocol: (§5) colleagues.6 Briefly, bone marrow-derived macrophage (BMDM, 4.2 × 10^4/well of
(§6) 96-well plate ) were incubated at the relevant concentrations of test compounds in
(§7) DMEM medium containing 4% L929 cell and 10% FCS (fetal calf serum). Cells were
(§8) incubated at 37 °C and 5% CO2 for 72 hours. Aalamar blue (10% v/v) was added to
(§9) measuring the fluorescence as described above. Medium without cells containing the
(§10) corresponding concentration of compound was used as a medium control. Assays
were performed in duplicate.
Data set [3] has as its system L. donovani amastigotes. The data set is described as follows: L. donovani ex-vivo amastigotes inhibition assay (alamar blue). The class given is cell-based, Leishmania donovani. Particulars: for EC50: Leishmania donovani, ex vivo L. donovani amastigotes, 72 hour incubation, read-out: Ld EC50. The protocol:
L. donovani ex-vivo amastigotes inhibition assay. Assays were carried out as
described by Paape and colleagues.
recorded with a 590nm±10nm bandpass filter, POLARstar Optima). Parasites cultured
[1-(readout-medium)/(positive-medium)] x 100%. Assays were carried out in
Macrophage toxicity test. Assays were carried out as described by Paape and […]

Data set [4] in a line: Stability on incubation over a wide pH range. The class given is physicochemical. Particulars: 37 °C, pH 1–10, 24 hours, data not shown. From the text: The binding mode of 10j to Leishmania major NMT (98% sequence identity to LdNMT with closely superimposable ligand binding sites)[14],[29] was confirmed by determination of the crystal structure of the ternary complex of LmNMT, myrisotyl-CoA and 10j (PDB ID:; 5a27). The inhibitor binds in the expected site adjacent to the enzyme's C-terminal carboxylate to which its piperidine forms an ion pairing interaction. This and other key interactions are conserved in a related series in PvNMT.[24] […] This ‘ring opening’ phenomenon has been observed in related compounds within the program,[27] although to our knowledge, it has not been reported elsewhere. The origin of the ring-opened species observed in the crystals remains unclear, and further investigation is underway to determine the cause of this discrepancy (such as potential radiation damage). As characterisation of the compounds was consistent with the proposed oxadiazoles, the development of the series was continued.

Data set [5] deals with T1, HsNMT1 (Homo sapiens, UniProt P30419).
T1 sequence (P30419 1-496): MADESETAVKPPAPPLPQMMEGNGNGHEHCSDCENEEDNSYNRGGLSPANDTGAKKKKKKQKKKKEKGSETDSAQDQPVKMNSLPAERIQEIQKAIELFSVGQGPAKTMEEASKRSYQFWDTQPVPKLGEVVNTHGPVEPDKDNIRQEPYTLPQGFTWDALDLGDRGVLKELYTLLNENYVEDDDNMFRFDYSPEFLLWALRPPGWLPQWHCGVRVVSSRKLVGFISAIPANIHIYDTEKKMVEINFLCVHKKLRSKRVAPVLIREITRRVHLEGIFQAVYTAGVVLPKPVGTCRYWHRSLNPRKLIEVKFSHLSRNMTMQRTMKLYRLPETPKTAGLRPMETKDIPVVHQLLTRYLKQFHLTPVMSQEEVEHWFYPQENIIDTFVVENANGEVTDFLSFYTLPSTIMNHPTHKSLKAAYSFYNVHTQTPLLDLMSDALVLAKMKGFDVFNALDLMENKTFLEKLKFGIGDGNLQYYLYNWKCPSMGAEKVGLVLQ
The data set is described as follows: HsNMT1 enzyme assay (CPM fluorescence). The class given is biochemical. Particulars: apparent Ki calculated from IC50 with Cheng–Prusoff equation, read-out: HsNMT Ki. The protocol:
Enzyme assay information. All IC 50 determinations were carried out using a 7-diethylamine-3-(4’maleimidylphenyl)-4-methylcoumarin (CPM) fluorescence assay, as described by previously. […]
IC 50 of an inhibitor was calculated by a nonlinear regression analysis using GraFit 7.0.1 version (Erithacus Software Limited, UK).The values are the mean […]
as §3

For data set [6], the target named is T2, PvNMT (Plasmodium vivax, UniProt A5K1A2).
T2 sequence (A5K1A2 1-410): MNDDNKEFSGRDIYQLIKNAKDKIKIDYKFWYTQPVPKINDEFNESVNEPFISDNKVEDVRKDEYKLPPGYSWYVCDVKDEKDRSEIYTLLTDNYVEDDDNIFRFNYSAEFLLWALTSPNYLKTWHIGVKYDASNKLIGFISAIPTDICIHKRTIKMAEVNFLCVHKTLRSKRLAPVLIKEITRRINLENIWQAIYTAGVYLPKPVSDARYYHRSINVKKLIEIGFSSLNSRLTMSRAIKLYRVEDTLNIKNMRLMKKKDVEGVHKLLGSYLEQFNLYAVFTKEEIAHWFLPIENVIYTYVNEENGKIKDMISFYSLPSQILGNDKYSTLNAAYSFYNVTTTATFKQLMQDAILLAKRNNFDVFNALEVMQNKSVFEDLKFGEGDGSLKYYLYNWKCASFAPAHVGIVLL
The data set is described as follows: biochemical. Particulars: for PvNMT LE: LE = [–log(Ki)](1.374)/(no. of heavy atoms); for Ki: apparent Ki calculated from IC50 with Cheng–Prusoff equation. Format: biochemical. The protocol: as §1
(§4) p60src (2-16) with sequence […]-NH 2 and the final concentration was 4.0 μM. IC 50 of an inhibitor was calculated by a nonlinear regression analysis using GraFit 7.0.1 version (Erithacus Software Limited, UK).The values are the mean value of two determinations; standard deviation is within 20% of the IC 50 unless […]
as §3

For data set [7], the target named is T3, PfNMT (Plasmodium falciparum, UniProt Q9U419).
T3 sequence (Q9U419 1-410): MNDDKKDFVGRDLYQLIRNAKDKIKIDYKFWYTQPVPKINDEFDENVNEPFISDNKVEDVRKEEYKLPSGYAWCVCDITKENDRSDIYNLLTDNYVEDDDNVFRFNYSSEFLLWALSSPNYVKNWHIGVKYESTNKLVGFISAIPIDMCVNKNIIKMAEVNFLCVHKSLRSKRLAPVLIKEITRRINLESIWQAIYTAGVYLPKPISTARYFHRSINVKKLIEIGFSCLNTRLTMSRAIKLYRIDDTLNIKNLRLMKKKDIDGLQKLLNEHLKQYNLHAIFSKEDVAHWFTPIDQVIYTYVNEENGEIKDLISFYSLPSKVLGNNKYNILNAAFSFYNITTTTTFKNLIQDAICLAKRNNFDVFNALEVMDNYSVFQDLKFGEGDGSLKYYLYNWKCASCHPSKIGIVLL
As to the kind of experiment: biochemical. The class given is biochemical. Particulars: for PfNMT LE: LE = [–log(Ki)](1.374)/(no. of heavy atoms); for Ki: apparent Ki calculated from IC50 with Cheng–Prusoff equation. On the procedure: as §1, §4, §3

The test system of data set [8] is bone marrow-derived macrophage (BMDM). The data set is described as follows: Macrophage toxicity test (alamar blue). The following applies: top concentration tested 90 μM. (Resazurin is reduced to fluorescent resorufin, in cell work by metabolically active cells.)
Protocol: as §5, §6, §7, §8, §9, §10
were performed in duplicate.
Data set [9] has as its system LdNMT. As to the kind of experiment: biochemical. Format: biochemical. On the procedure: as §1, §2, §3

The structures appear in SMILES notation. Entries after “also recorded” stand apart in the source; their conditions may differ. Read-outs that look alike come from different tables or passages of the source.

`COc1cccc(Cc2noc(-c3cc(C)ccc3OC3CCNCC3)n2)c1` [Compound 10i]: in data set [1] ([…], read-out: LdNMT Ki), the Ki was 0.24 µM.
`COc1cccc(Cc2noc(-c3ccc(Cl)cc3OC3CCNCC3)n2)c1` [Compound 10f]: in [1] (LdNMT Ki, Km 32.7 μM, substrate 4.0 μM), the Ki was […].
On to `COc1cccc(Cc2noc(-c3ccc(F)cc3OC3CCNCC3)n2)c1` [Compound 10g], for which the “Macrophage LD50” value in data set [2] turned out to be 29.5 µM.
One may read the EC50 as the concentration needed to bring the measured effect to its halfway point. Consider `COc1cccc(Cc2noc(-c3cc(OC)ccc3OC3CCNCC3)n2)c1` [Compound 10k], for which the EC50 in data set [3] was 13.5 µM. For the same compound, in data set [2], the “Macrophage LD50” value was 27.9 µM.
Regarding `COc1cccc(Cc2noc(-c3cc(Cl)ccc3OC3CCNCC3)n2)c1` [Compound 10j], in data set [4], the degradation on incubation entry is recorded as “no degradation”. For the same compound, in [3], the EC50 amounted to 6.7 µM. In addition, the “Macrophage LD50” value in data set [2] turned out to be 18.0 µM.
Take `COc1cccc(Cc2noc(-c3cccc(OC)c3OC3CCNCC3)n2)c1` [Compound 10b]: the “LdNMT LE” value in [1] is listed as 0.26. For the same compound, the Ki in [1] ([…], read-out: LdNMT Ki) was 4.02 µM; in [5], 7.23 µM.
The corresponding values for `COc1cccc(Cc2noc(-c3ccc(C)cc3OC3CCNCC3)n2)c1` [Compound 10d] are 0.26, 5.18 µM and 4.64 µM.
For the compound `COc1cccc(Cc2noc(-c3ccc(Br)cc3OC3CCNCC3)n2)c1` [Compound 10h], the Ki in data set [1] ([…], read-out: LdNMT Ki) is 0.68 µM.
In the case of `COc1cccc(Cc2noc(-c3cccc(C)c3OC3CCNCC3)n2)c1` [Compound 10c], the “LdNMT LE” value in data set [1] is recorded as 0.29. The Ki was 1.43 µM in data set [1] ([…], read-out: LdNMT Ki) and 7.44 µM in data set [5].
On to `COc1cccc(COC(=O)c2ccccc2OC2CCNCC2)c1` [Compound 6], for which the “PvNMT LE” value in data set [6] was found to be 0.31. The Ki in data set [6] was 2.42 µM; in [7], 6 µM; in data set [1] ([…], read-out: LdNMT Ki), 0.28 µM; in data set [5], over 100 µM. In addition, the “PfNMT LE” value in [7] is 0.29. Besides, the “LdNMT LE” value in data set [1] worked out at 0.36.
Consider `COc1cccc(Cc2noc(-c3ccc(OC)cc3OC3CCNCC3)n2)c1` [Compound 10e], for which the Ki in data set [1] ([…], read-out: LdNMT Ki) was 3.04 µM.
Turning to `Cc1nn(C)c(C)c1Cc1nnc(-c2cc(Cl)ccc2OC2CCNCC2)o1` [Compound 13], the Ki in data set [1] ([…], read-out: LdNMT Ki) is 0.01 µM. For the same compound, in [3], the EC50 was over 50 µM. Also, the “effect against ex vivo amastigotes” value in data set [3] (up to 50 μM) is given as “no observed effect; also recorded: failed to inhibit”. Also, the “Macrophage LD50” value in data set [2] is over 90 µM. In addition, in data set [8], the “macrophage toxicity” value was “did not display any macrophage toxicity; also recorded: no macrophage toxicity”.
Broadly, the IC50 is the concentration needed to halve the response being measured. In the case of `COc1cccc(COC(=O)c2sccc2OC2CCNCC2)c1` [Compound 5], in data set [6], the “PvNMT LE” value came to 0.30. Besides, the Ki in data set [6] is 6.5 µM; in [7] it was over 100 µM; in data set [1] ([…], read-out: LdNMT Ki) it was 0.73 µM; in [5], over 100 µM. Besides, the “LdNMT LE” value in data set [1] was found to be 0.35. Besides, the “improvement in LdNMT enzyme affinity” value in [1] came out at 8 fold. This compound also gave a half-maximal inhibitory concentration (IC50) in data set [1] (experimentally determined, substrate 4.0 μM) of 0.82 ± 0.14 µM.
On to `COc1cccc(COC(=O)c2sc3ccccc3c2OC2CCNCC2)c1` [Compound 1], for which the “PvNMT LE” value in data set [6] is 0.35. The Ki was 0.08 µM in data set [6]; 0.83 µM in [7]; 5.82 µM in [1] ([…], read-out: LdNMT Ki); 3.2 µM in data set [5]. The “PfNMT LE” value in data set [7] came out at 0.30.
For the compound `COc1cccc(Cc2noc(-c3ccccc3OC3CCNCC3)n2)c1` [Compound 10a], the “LdNMT LE” value in data set [1] is 0.37. The “improvement in LdNMT enzyme affinity” value in [1] (5 relative to 1, 10a relative to 6) is recorded as ~ 4 fold. For the same compound, the “selectivity in favour of the parasite enzyme (LdNMT over HsNMT)” value in data set [9] is 20 fold. The 50% effective concentration (EC50) in data set [3] was over 30 µM. For the same compound, the Ki in data set [5] was 1.24 µM.

The values are drawn from PMC4757855, “Discovery of high affinity inhibitors of Leishmania donovani N-myristoyltransferase” (Medchemcomm, 2015).
